Experimental data: patent US5968948A, “Annelated dihydropyridines and the use thereof for preparing pharmaceutical preparations” (Boerhinger Ingelheim GmbH, priority 1993, dated 1999)

Test system: RBL-2H3-cells
Test: Antigen-induced (DNP-BSA) activation of sensitised RBL-2H3 cells, fluorometric calcium measurement
Format: cell-based
Details: Rattus norvegicus, read-out: inhibition of the antigen-induced cell activation
Protocol: Individual RBL-2H3-cells (a tumour cell line related to the mast cells) adhering to glass slides are used.
The cultivation and attachment of the RBL-2H3-cells are carried out by the method described by HIDE and BEAVEN (1991). In order to sensitise the adhesive RBL-2H3-cells the cells are incubated for 2 hours at ambient temperature with a 1:2000 diluted commercial gammaglobulin E-solution against a dinitrophenol-bovine serum albumin complex (DNP-BSA-antigen). The cells are then washed. By the addition of 0.1 ml of DNP-BSA-solution (10 μg/ml) there is a massive immunological cell activation which is mediated by a cytoplasmic Ca^2+ -overload. The fluorometric calcium measurement in the cytoplasm of individual adhering RBL-2H3-cells is carried out analogously to the method described by KUDO and OGURA (1986) for neuronal cells, which is also explained hereinbefore in this specification.
The comparison used in these investigations is (10 μM) chromoglycate which brings about an approximately 50% inhibition of the antigen-induced cell activation.

With `O=C(O)c1cc(=O)c2c(OCC(O)COc3cccc4oc(C(=O)O)cc(=O)c34)cccc2o1` [chromoglycate] the inhibition at 10 µM was about 50%.
